In patent publication US9527850B2, “Benzyl piperidine compounds as lysophosphatidic acid (LPA) receptor antagonist” (Merck Patent GmbH, priority 2011, dated 2016):

Target: T1, LPA2 receptor (LPA2R) (Homo sapiens, UniProt Q9HBW0)
T1 construct: expressed in transfected cells; host or cells: U2OS
Test: LPA2R-Calciumflux assay (intracellular calcium mobilisation, FLIPR)
Format: cell-based
Details: U2OS cells recombinant expressing LPA2R; inhibition of LPA-induced Ca-flux; 10 concentrations 30 uM to 1 nM, 1% DMSO
Text: The assay detects intra cellular calcium which is generated by cells upon activation of the LPA2 receptor by its ligand LPA. This transient calcium mobilization can be monitored using a commercial calcium detection kit (e.g. from Molecular Devices). The main component of such a kit is a dye, which becomes fluorescent when calcium is present—a transient fluorescence signal after laddition of a ligand to a test well are the result. Readers like the FLIPR (Molecular Devices) can be used to monitor such transient “Ca-flux” signals.
The signals are calculated according to peak maximum minus base line.
The assay is performed in microplates (384 wells per plate).
LPA2R-Calciumflux Assay Protocol
The assay is run according to the following procedure: • 50 uL seed cells (10000 cells/well in DMEM buffer) • Incubate 24 h at 37° C., 10% CO2 • aspirate medium • 50 uL add calcium dye 1×HBSS/HEPES buffer • incubate 1 h at 37° C. (“loading”) • equilibrate 10 min at RT • 5 uL add compounds in HEPES buffer • shake 10 sec. at 1000 rpm • incubate 15 min at RT • 20 uL add LPA (in the FLIPR Tetra) in Krebs-buffer/BSA & measurement
The cells are seeded in DMEM buffer (DMEM, 10% FCS, 10 mM HEPES, 1% Pen/Strep).
Dye loading is done in HBSS/HEPES buffer (100 mL 10×HBSS+20 mL 1M HEPES+880 mL water, pH 7.4)
The LPA is added in Krebs/BSA buffer (120 mM NaCl, 5 mM KCl, 0.62 mM MgSO4, 1.8 mM CaCl2, 10 mM HEPES, 6 mM D(+)-Glucose, 0.2% BSA, pH 7.4).
The compounds are pre-diluted in HEPES buffer (20 mM, pH 7.4), whereby the final DMSO content in the assay is kept at 1%. The compounds are pre-diluted in order to generate dose response series on the microplates. The dose response series consist of 10 concentrations for each compound from 30 uM final to 1 nM final. From all compound wells the resulting signals are referred to control wells (located on each plate besides the compound wells) in terms of % activity.
From these % activity values—along with the corresponding compound concentrations—IC50 values are fitted for each compound using standard fitting programs such as Graphpad Prism. Here the method “log(inhibitor) vs. response—Variable slope” is used.

T1 sequence (Q9HBW0 whole entry): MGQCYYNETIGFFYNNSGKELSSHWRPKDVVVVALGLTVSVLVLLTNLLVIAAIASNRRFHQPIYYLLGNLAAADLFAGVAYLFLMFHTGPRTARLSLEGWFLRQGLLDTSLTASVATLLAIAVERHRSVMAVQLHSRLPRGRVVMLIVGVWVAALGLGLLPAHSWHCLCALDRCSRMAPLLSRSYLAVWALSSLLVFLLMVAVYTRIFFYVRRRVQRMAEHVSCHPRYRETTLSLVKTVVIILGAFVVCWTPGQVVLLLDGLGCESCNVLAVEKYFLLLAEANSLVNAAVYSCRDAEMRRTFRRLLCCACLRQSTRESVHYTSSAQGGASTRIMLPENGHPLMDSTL

SMILES	IC50 [nM]
Fc1ccc(CN2CCCCC2c2nc3cc(F)ccc3[nH]2)cc1 (stereo not shown) [compound 49, 5-Fluoro-2-[1-(4-fluoro-benzyl)-piperidin-2-yl]-1H-benzo-imidazole]	< 500
Cc1ccc(CN2CCCCC2c2cc3ccccc3o2)cc1C (stereo not shown) [compound 50, 2-Benzofuran-2-yl-1-(3,4-dimethyl-benzyl)-piperidine]	500 to 5000
Cc1ccc(CN2CCCCC2c2nc3cc(F)ccc3[nH]2)cc1C (stereo not shown) [compound 51, 2-[1-(3,4-Dimethyl-benzyl)-piperidin-2-yl]-5-fluoro-1H-benzo-imidazole]	< 500
Cc1ccc(CN2CCCCC2c2nc3ccccc3s2)cc1C (stereo not shown) [compound 52, 2-[1-(3,4-Dimethyl-benzyl)-piperidin-2-yl]-benzo-thiazole]	5000 to 15000
Fc1ccc2[nH]c(C3CCCCN3Cc3cccc(Cl)c3Cl)cc2c1 (stereo not shown) [compound 54, 2-[1-(2,3-Dichloro-benzyl)-piperidin-2-yl]-5-fluoro-1H-indole]	500 to 5000
COc1cc(CN2CCCCC2c2cc3cc(F)ccc3[nH]2)cc(OC)c1 (stereo not shown) [compound 55, 2-[1-(3,5-Dimethoxy-benzyl)-piperidin-2-yl]-5-fluoro-1H-indole]	500 to 5000
Fc1ccc2[nH]c(C3CCCCN3Cc3ccccn3)cc2c1 (stereo not shown) [compound 56, 5-Fluoro-2-(1-pyridin-2-ylmethyl-piperidin-2-yl)-1H-indole]	500 to 5000
Fc1ccc2[nH]c(C3CCCCN3Cc3cccc(Br)c3)cc2c1 (stereo not shown) [compound 57, 2-[1-(3-Bromo-benzyl)-piperidin-2-yl]-5-fluoro-1H-indole]	500 to 5000
Fc1ccc2[nH]c(C3CCCCN3Cc3ccc(Br)cc3)cc2c1 (stereo not shown) [compound 58, 2-[1-(4-Bromo-benzyl)-piperidin-2-yl]-5-fluoro-1H-indole]	500 to 5000
Fc1ccc2[nH]c(C3CCCCN3Cc3ccc(Cl)cc3Cl)cc2c1 (stereo not shown) [compound 59, 2-[1-(2,4-Dichloro-benzyl)-piperidin-2-yl]-5-fluoro-1H-indole]	5000 to 15000
Fc1ccc2[nH]c(C3CCCCN3Cc3ccc(Cl)c(Cl)c3)cc2c1 (stereo not shown) [compound 60, 2-[1-(3,4-Dichlorobenzyl)-piperidin-2-yl]-5-fluoro-1H-indole]	5000 to 15000
CC1CCC(c2cc3cc(F)ccc3[nH]2)N(Cc2ccc(F)cc2)C1 (stereo not shown) [compound 61, 5-Fluoro-2-[1-(4-fluoro-benzyl)-5-methyl-piperidin-2-yl]-1H-indole]	500 to 5000
COc1cccc(CN2CC(C)CCC2c2cc3cc(F)ccc3[nH]2)c1 (stereo not shown) [compound 62, 5-Fluoro-2-[1-(3-methoxy-benzyl)-5-methyl-piperidin-2-yl]-1H-indole]	5000 to 15000
Fc1ccc2[nH]c(C3CCCCN3Cc3c[nH]c4ccccc34)cc2c1 (stereo not shown) [compound 63, 5-Fluoro-2-[1-(1H-indol-3-ylmethyl)-piperidin-2-yl]-1H-indole]	500 to 5000
COc1ccc(CN2CCC(C)CC2c2cc3cc(F)ccc3[nH]2)cc1 (stereo not shown) [compound 64, 5-Fluoro-2-[1-(4-methoxy-benzyl)-4-methyl-piperidin-2-yl]-1H-indole]	500 to 5000
Cc1ccc2c(c1)c(CN1CCCCC1c1cc3cc(F)ccc3[nH]1)cn2C (stereo not shown) [compound 65, 3-[2-(5-Fluoro-1H-indol-2-yl)-piperidin-1-ylmethyl]-1,5-dimethyl-1H-indole]	500 to 5000
Cc1ccc2c(CN3CCCCC3c3cc4cc(F)ccc4[nH]3)cn(C)c2c1 (stereo not shown) [compound 66, 3-[2-(5-Fluoro-1H-indol-2-yl)-piperidin-1-ylmethyl]-1,6-dimethyl-1H-indole]	500 to 5000
Brc1ccc(CN2CCCCC2c2cc3ccccc3[nH]2)cc1 (stereo not shown) [compound 67, 2-[1-(4-Bromo-benzyl)-piperidin-2-yl]-1H-indole]	500 to 5000
COc1ccc(CN2CCC(C)CC2c2cc3ccccc3[nH]2)cc1 (stereo not shown) [compound 68, 2-[1-(4-Methoxy-benzyl)-4-methyl-piperidin-2-yl]-1H-indole]	500 to 5000
Cc1cc(C)c2cc(C3CCCCN3Cc3ccc(F)cc3)[nH]c2c1 (stereo not shown) [compound 69, 2-[1-(4-Fluoro-benzyl)-piperidin-2-yl]-4,6-dimethyl-1H-indole]	500 to 5000
Cc1ccc2[nH]c(C3CCCCN3Cc3ccc(F)cc3)cc2c1 (stereo not shown) [compound 70]	500 to 5000
COc1cccc(CN2CCCCC2c2cc3cc(C)ccc3[nH]2)c1 (stereo not shown) [compound 71, 2-[1-(3-Methoxy-benzyl)-piperidin-2-yl]-5-methyl-1H-indole]	500 to 5000

SMILES	IC50 [nM]
CC(c1ccc(F)cc1)N1CCCCC1c1cc2cc(F)ccc2[nH]1 (stereo not shown) [compound 72, 5-Fluoro-2-{1-[1-(4-fluoro-phenyl)-ethyl]-piperidin-2-yl}-1H-indole]	< 500
COc1ccc(CN2CCCCC2c2cc3cc(Cl)ccc3[nH]2)cc1 (stereo not shown) [compound 73, 5-Chloro-2-[1-(4-methoxy-benzyl)-piperidin-2-yl]-1H-indole]	< 500
COc1cccc(CN2CCC(C)CC2c2cc3cc(Cl)ccc3[nH]2)c1 (stereo not shown) [compound 74, 5-Chloro-2-[1-(3-methoxy-benzyl)-4-methyl-piperidin-2-yl]-1H-indole]	500 to 5000
Cc1c(C2CCCCN2Cc2ccc(F)cc2)[nH]c2ccc(F)cc12 (stereo not shown) [compound 75, 5-Fluoro-2-[1-(4-fluoro-benzyl)-piperidin-2-yl]-3-methyl-1H-indole]	< 500
COc1ccc(CN2CCCC(C)C2c2cc3c4c(ccc3[nH]2)CCC4)cc1 (stereo not shown) [compound 76, 2-[1-(4-Methoxy-benzyl)-3-methyl-piperidin-2-yl]-3,6,7,8-tetrahydro-cyclopenta [e]indole]	5000 to 15000
Cc1ccc(CN2CCC(C)CC2c2cc3ccccc3[nH]2)cc1C (stereo not shown) [compound 79, 2-[1-(3,4-Dimethyl-benzyl)-4-methyl-piperidin-2-yl]-1H-indole]	500 to 5000
CC1CCCN(Cc2ccc(F)cc2)C1c1cc2ccccc2[nH]1 (stereo not shown) [compound 81, 2-[1-(4-Fluoro-benzyl)-3-methyl-piperidin-2-yl]-1H-indole]	500 to 5000
COc1cccc(CN2CCCCC2c2cc3cc(OC)ccc3[nH]2)c1 (stereo not shown) [compound 82, 5-Methoxy-2-[1-(3-methoxy-benzyl)-piperidin-2-yl]-1H-indole]	< 500
COc1ccc2[nH]c(C3CC(C)CCN3Cc3ccc(C)c(C)c3)cc2c1 (stereo not shown) [compound 83, 2-[1-(3,4-Dimethyl-benzyl)-4-methyl-piperidin-2-yl]-5-methoxy-1H-indole]	500 to 5000
Cc1cc(C)cc(CN2CCCCC2c2cc3cc(F)ccc3[nH]2)c1 (stereo not shown) [compound 84, 2-[1-(3,5-Dimethyl-benzyl)-piperidin-2-yl]-5-fluoro-1H-indole]	< 500
CCc1nc(CN2CCCCC2c2cc3cc(F)ccc3[nH]2)cs1 (stereo not shown) [compound 85]	< 500
N#Cc1cccc(CN2CCCCC2c2cc3cc(F)ccc3[nH]2)c1 (stereo not shown) [compound 86, 3-[2-(5-Fluoro-1H-indol-2-yl)-piperidin-1-ylmethyl]-benzonitrile]	500 to 5000
Cc1ccc(CN2CCC(C)CC2c2cc3cc(F)ccc3[nH]2)cc1C (stereo not shown) [compound 87, 2-[1-(3,4-Dimethyl-benzyl)-4-methyl-piperidin-2-yl]-5-fluoro-1H-indole]	< 500
Cc1ccc(CN2CCCCC2c2nc3ccc(Cl)cc3[nH]2)cc1C (stereo not shown) [compound 88, 6-Chloro-2-[1-(3,4-dimethyl-benzyl)-piperidin-2-yl]-1H-benzo-imidazole]	< 500
FC(F)(F)c1cccc(CN2CCCCC2c2nc3ccc(Cl)cc3[nH]2)c1 (stereo not shown) [compound 89]	500 to 5000
Cc1ccc(CN2CCCCC2c2nc3ccc(Cl)cc3[nH]2)cc1C(F)(F)F (stereo not shown) [compound 90]	500 to 5000
Cc1cccc(CN2CCCCC2c2nc3ccc(Cl)cc3[nH]2)c1 (stereo not shown) [compound 91, 6-Chloro 2-[1-(3-methyl-benzyl)-piperidin-2-yl]-1H-benzo-imidazole]	< 500
FC(F)(F)c1cccc(CN2CCCCC2c2nc3ccc(Br)cc3[nH]2)c1 (stereo not shown) [compound 92]	500 to 5000
Cc1ccc(CN2CCCCC2c2nc3ccc(Br)cc3[nH]2)cc1C(F)(F)F (stereo not shown) [compound 93]	500 to 5000
CC1(C)CCC(C)(C)c2cc(CN3CCCCC3c3nc4ccc(Br)cc4[nH]3)ccc21 (stereo not shown) [compound 94, 6-Bromo-2-[1-(5,5,8,8-tetramethyl-5,6,7,8-tetrahydro-naphthalen-2-ylmethyl)-piperidin-2-yl]-1H-benzo-imidazole]	5000 to 15000
Cc1cccc(CN2CCCCC2c2nc3ccc(Br)cc3[nH]2)c1 (stereo not shown) [compound 95, 6-Bromo-2-[1-(3-methyl-benzyl)-piperidin-2-yl]-1H-benzo-imidazole]	< 500
